These compounds were tested against EGFR (human) (UniProt P00533). Settings: kb.
Chain of EGFR (human) (P00533 whole entry, looked up): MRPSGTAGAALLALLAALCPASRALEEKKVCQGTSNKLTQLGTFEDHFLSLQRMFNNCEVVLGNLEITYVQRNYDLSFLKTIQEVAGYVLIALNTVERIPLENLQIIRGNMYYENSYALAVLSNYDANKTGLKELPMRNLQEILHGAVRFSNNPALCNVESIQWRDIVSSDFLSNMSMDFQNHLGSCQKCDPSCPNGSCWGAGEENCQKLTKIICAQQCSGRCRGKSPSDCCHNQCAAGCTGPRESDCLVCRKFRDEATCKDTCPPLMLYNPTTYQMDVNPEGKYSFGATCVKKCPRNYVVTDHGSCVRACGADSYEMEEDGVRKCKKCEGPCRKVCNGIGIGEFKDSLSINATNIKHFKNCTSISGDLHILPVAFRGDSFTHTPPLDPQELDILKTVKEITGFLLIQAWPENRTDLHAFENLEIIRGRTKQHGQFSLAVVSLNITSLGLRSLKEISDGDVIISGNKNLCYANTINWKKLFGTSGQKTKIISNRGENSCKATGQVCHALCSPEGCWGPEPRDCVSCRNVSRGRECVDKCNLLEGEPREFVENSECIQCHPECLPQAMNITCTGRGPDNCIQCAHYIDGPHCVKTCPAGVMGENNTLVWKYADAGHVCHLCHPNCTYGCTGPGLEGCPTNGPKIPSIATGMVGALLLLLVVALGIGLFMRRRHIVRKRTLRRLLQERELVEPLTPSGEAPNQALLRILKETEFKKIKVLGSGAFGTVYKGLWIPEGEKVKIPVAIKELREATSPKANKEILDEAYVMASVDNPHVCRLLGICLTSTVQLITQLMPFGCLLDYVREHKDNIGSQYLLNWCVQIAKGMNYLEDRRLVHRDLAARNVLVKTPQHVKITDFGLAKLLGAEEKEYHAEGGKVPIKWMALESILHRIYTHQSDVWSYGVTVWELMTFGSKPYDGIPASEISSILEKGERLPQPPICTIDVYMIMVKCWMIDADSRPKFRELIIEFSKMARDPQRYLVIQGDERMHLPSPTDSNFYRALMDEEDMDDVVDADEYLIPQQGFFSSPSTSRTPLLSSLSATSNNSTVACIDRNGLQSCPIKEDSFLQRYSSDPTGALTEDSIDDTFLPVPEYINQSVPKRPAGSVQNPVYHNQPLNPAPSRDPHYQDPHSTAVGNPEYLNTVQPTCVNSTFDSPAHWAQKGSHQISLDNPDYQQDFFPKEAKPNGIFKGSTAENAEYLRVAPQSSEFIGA

`COc1cc(OC[C@H]2C[C@@H](O)CN2C(=O)CO)c2c(Nc3ccc(F)c(Cl)c3)ncnc2c1` and `COc1cc(OC[C@@H]2C[C@@H](O)CN2C(=O)CO)c2c(Nc3ccc(F)c(Cl)c3)ncnc2c1` are within 1.5-fold of each other in IC50: 118 nM for the first, 156 nM for the second.

First: COc1cc(OC[C@H]2CCCN2C(=O)CO)c2c(Nc3ccc(F)c(Cl)c3)ncnc2c1
Second: COc1cc(OC[C@H]2CCCN2C(C)=O)c2c(Nc3ccc(F)c(Cl)c3)ncnc2c1
The IC50 of the first is 3.2-fold higher: 91 nM for the first, 28 nM for the second.

`COc1cc(OC[C@@H]2CCCN2C(=O)CN2CCCC2)c2c(Nc3ccc(F)c(Cl)c3)ncnc2c1` and `COc1cc(OC[C@@H]2CCCN2C(=O)CN(C)C)c2c(Nc3ccc(F)c(Cl)c3)ncnc2c1` are within 1.5-fold of each other in IC50: 130 nM for the first, 141 nM for the second.

`O=C(CO)N1CCC[C@@H]1COc1cc(OCCO)cc2ncnc(Nc3ccc(F)c(Cl)c3)c12` and `CCOCCOc1cc(OC[C@H]2CCCN2C(=O)CO)c2c(Nc3ccc(F)c(Cl)c3)ncnc2c1` are within 1.5-fold of each other in IC50: 128 nM for the first, 99 nM for the second.

First: COc1cc(OC[C@@H]2C[C@H](O)CN2C(=O)CN(C)C)c2c(Nc3ccc(F)c(Cl)c3)ncnc2c1
Second: COCC(=O)N1C[C@@H](O)C[C@@H]1COc1cc(OC)cc2ncnc(Nc3ccc(F)c(Cl)c3)c12
The IC50 of the first is 2.6-fold lower: 112 nM for the first, 288 nM for the second. The first is the more potent here.

Going from `COc1cc(OC[C@H]2CCCN2C(=O)CN(C)C)c2c(Nc3ccc(F)c(Cl)c3)ncnc2c1` to `COc1cc(OC[C@H]2C[C@H](O)CN2C(C)=O)c2c(Nc3ccc(F)c(Cl)c3)ncnc2c1`, the IC50 falls from 138 nM to 75 nM (1.8-fold). The second is the more potent here.
